Reference: EP4139472B1, “A METHOD FOR BIOTESTING OF A CONDENSED PHASE SUBSTANCES AND/OR MIXTURES ECOTOXICITY AND USE OF THE METHOD IN ECOTOXYCOLOGY” (Uniwersytet Jana Dlugosza w Czestochowie, priority 2020, dated 2021)
Values joined by “and” are separate entries in the source; they are usually repeats but may differ in a detail not shown here. Identical values can stand only once. Like-named read-outs stand apart in the source and are kept apart here.

Test system: A. fischeri bacteria
Assay: Bioluminescence inhibition of A. fischeri, modified Microtox Basic Solid Phase Test (synthetic sample with inert auxiliary substance)
Type: cell-based, Aliivibrio fischeri
Settings: for EC50: Aliivibrio fischeri
Excerpt: According to the invention, instead of a homogeneous solid sample with a relatively large mass (7 g in the Microtox® Basic Solid Phase Test), which is often unreachable for laboratory measurements of expensive or innovative materials, a so-called synthetic sample (as opposed to natural samples, i.e. soils and bottom sediments) of the same mass, containing the tested substance and an inert auxiliary substance (so called solid matrix) is being created. As a result, the synthetic sample simulates the soil contaminated with the tested substance. The synthetic sample prepared in such a way can be dispersed in the diluent and processed further according to the Microtox® Basic Solid Phase Test protocol. The Microtox® Basic Solid Phase Test protocol provides a series of steps covering, in turn: • suspending 7 g of the test sample in 35 ml of diluent in a 50 ml beaker, mixing for 10 min; • taking 2 mL of the suspension described above, while stirring it, into an appropriate cuvette; • performing a series of 1:2 dilutions of the test sample using the diluent; • reconstitution of freeze-dried Aliivibrio fischeri bacteria; • preparation and 15 min incubation of the reagent (10 µL of reconstituted bacteria and 0.5 mL of diluent); • bioluminescence measurement for time zero (bioluminescence before contact with the sample); • adding the reagent to each test sample and to the control cuvette; • incubation for 5 min, measurement of bioluminescence after 5 min incubation of bacteria with the sample; • incubation for another 10 min, measurement of bioluminescence after 15 min incubation of bacteria with the sample. The Microtox® protocol provides for the use of a 30-well incubator block maintaining a temperature of 15° C in the wells of the sample cuvettes and 5.5° C in the well of the bacterial suspension. According to the invention, a sample containing the substance to be test and an auxiliary substance is subjected to the procedure provided for in the Microtox® Basic Solid Phase Test. The pre-suspension is made by mixing the synthetic sample with a diluent (Microtox® Solid Phase Diluent: 3.5% aqueous NaCl solution) in appropriate proportions provided for in the measurement protocol, for example 7 g of the sample is mixed with 35 mL of diluent (weight/volume ratio of the sample to diluent is 1:5 g/mL), but after validation it is possible to use dispersions of any proportion (preferably from 1:4 g/mL to 1:6 g/mL) and scale (preferably samples weighing 3-10 g depending on capacity of the equipment used). In the case of hydrophobic chemicals, it is allowed to suspend them in a mixture of methanol with a diluent (e.g. 4% methanol solution) to increase their solubility. Then, the suspension is stirred in a tall beaker on a stirrer so that, as a result of mixing, the vortex always has the same, repeatable height, equal to half the height of the liquid level. A representative sample for further dilutions is drawn with an automatic pipette while the suspension is stirred, from half the depth of the suspension according to the Microtox® protocol. The further steps in the measurement (including but not limited to dilution, sampling, luminescence measurement, etc.) also follow the Microtox® Basic Solid Phase Test Procedure. […] A representative sample for further dilutions was taken from half the depth of the suspension without stirring interruption according to the Microtox® Basic Solid Phase Test protocol. […] The measurements were carried out in triplicate and the EC50 values were determined after 5 and 15 minutes of exposure. The obtained results with 95% confidence intervals, as well as the correlation coefficients are summarized below, in Table 2. Table 2. EC50 values [mg/L] obtained after 5 and 15 minutes exposure of A. fischeri bacteria to pure valsartan along with the corresponding confidence intervals.

Row | SMILES | EC50 5 min (5 min exposure, 0.200 g losartan potassium + 5.600 g quartz sand in 35 mL diluent (1:[…]), single replicate, 95% confidence interval in brackets) | EC50 15 min (15 min exposure, 0.200 g losartan potassium + 5.600 g quartz sand in 35 mL diluent (1:[…]), single replicate, 95% confidence interval in brackets) | EC50 (5 min, 5 min exposure, 0.200 g losartan potassium + 5.600 g quartz sand in 35 mL diluent (1:[…]), single replicate, 95% confidence interval in brackets, read-out: EC50 5 min) | EC50 (5 min, 5 min exposure, pure losartan potassium + quartz sand, mean of three replicates, read-out: EC50 5 min, Mean) | EC50 (0.25 h, 15 min exposure, 0.200 g losartan potassium + 5.600 g quartz sand in 35 mL diluent (1:[…]), single replicate, 95% confidence interval in brackets, read-out: EC50 15 min) | EC50 (0.25 h, 15 min exposure, pure losartan potassium + quartz sand, mean of three replicates, read-out: EC50 15 min, Mean) | EC50 5 min (5 min exposure, 0.160 g pure valsartan + 6.840 g quartz sand in 35 mL diluent, single replicate, 95% confidence interval in brackets) | EC50 15 min (15 min exposure, 0.160 g pure valsartan + 6.840 g quartz sand in 35 mL diluent, single replicate, 95% confidence interval in brackets) | EC50 (5 min, 5 min exposure, 0.160 g pure valsartan + 6.840 g quartz sand in 35 mL diluent, single replicate, 95% confidence interval in brackets, read-out: EC50 5 min) | EC50 (5 min, 5 min exposure, pure valsartan + quartz sand, mean of three replicates, read-out: EC50 5 min, Mean) | EC50 (0.25 h, 15 min exposure, pure valsartan + quartz sand, mean of three replicates, read-out: EC50 15 min, Mean)
1 | CCCCc1nc(Cl)c(CO)n1Cc1ccc(-c2ccccc2-c2nn[nH]n2)cc1 [losartan potassium] | 594.25 (343.09-1028.98) mg/L and 667.23 (490.17-908.21) mg/L | 694.10 (541.64-889.82) mg/L and 629.33 (172.93-2289.90) mg/L | 490 µg/mL | 584 ± 72.7 µg/mL | 654 µg/mL | 659 ± 26.7 µg/mL | – | – | – | – | –
2 | CCCCC(=O)N(Cc1ccc(-c2ccccc2-c2nnn[nH]2)cc1)[C@H](C(=O)O)C(C)C [valsartan] | – | – | – | – | – | – | 172.06 (102.02-290.17) mg/L and 88.31 (83.90-92.91) mg/L | 341.70 (338.33-358.97) mg/L and 242.80 (103.75-568.26) mg/L and 120.04 (99.20-145.28) mg/L | 169 µg/mL | 143 ± 38.8 µg/mL | 235 ± 90.7 µg/mL
